{
  "source": "patent EP0110955B1",
  "about": "“BRAIN-SPECIFIC DRUG DELIVERY” (UNIVERSITY OF FLORIDA, priority 1982, dated 1983)",
  "key": {"[1]": {"test": "Kinetics of oxidation of the dihydro derivatives in brain homogenate", "type": "in vitro ADME, rat", "conditions": "pH 7.4, 37°C; for half-life: rat", "procedure": "In Brain Homogenate: 2.0 g of rat brain tissue were homogenized in 10 ml of phosphate buffer, pH 7.4. The homogenate was centrifuged for 15 min at 3000 rpm, decanted, heated in a water bath at 50°C for 5 min and then centrifuged again. The supernatant solution was diluted to 100 ml with phosphate buffer, pH 7.4.\nReference Sample: 0.2 ml of methyl alcohol was diluted to 10 ml with the brain homogenate solution, and the solution was used to record the base line on Cary 219 spectrophotometer and as a reference for the dihydro derivative sample solution.\nDihydro Derivative Sample Solutions: 0.2 ml of 6.25 x 10-^4 M methanolic solution of the freshly prepared dihydro derivative was diluted to 10 ml with the brain homogenate solution. The mixture was scanned at 37 ° C from 400 nm to 300 nm every 10 min for 2 hrs on […] spectrophotometer."}, "[2]": {"test": "Kinetics of oxidation of the dihydro derivatives in whole blood", "type": "in vitro ADME, human", "conditions": "37°C; for half-life: human", "procedure": "In Whole Blood: In each of 5 tubes, 0.1 ml of 10 x 10-^4 M methanolic solution of the freshly prepared dihydro derivative, was added 2 ml of fresh heparinized whole human blood and the tubes were kept at 37°C in a water bath. At the end of the time period to be investigated, 8 ml of acetonitrile was added, shaken vigorously and centrifuged. The extension of the supernatant solution at 350 nm was measured. A reference sample was made by addition of 0.1 ml of methyl alcohol instead of the sample solution following the same procedure."}, "[3]": {"test": "Chemical oxidation by hydrogen peroxide and silver nitrate", "type": "physicochemical", "conditions": "30% H2O2, UV spectrum", "procedure": "The stability of the 1,4-dihydropyridine derivatives (5) was determined in the presence of the oxidizing agents, alcoholic AgN03 and hydrogen peroxide. The in vitro rates of oxidation of the 1,4-dihydropyridine derivative (5c) in 80% plasma, 20% brain homogenate, 20% liver homogenate and in whole blood were determined.\nTo 10 ml of 30% H202 was added 0.2 g of the dihydropyridine derivative (products of Examples 5 or 8). The mixture was stirred and samples were taken to check the UV spectrum.\nTo 5 ml of saturated methanolic AgN03 solution was added 1 ml of 5% methanolic solution of the dihydropyridine derivative. The mixture was shaken and left for 5 min for complete precipitation of silver, centrifuged and an aliquot was taken to check the UV spectrum. Complete oxidation to the quaternary salts was observed."}, "[4]": {"biological_target": "T1, COMT (catechol-O-methyltransferase) (Rattus norvegicus, UniProt P22734)", "T1 construct": "from tissue; host or cells: rat brain homogenate (20%), rat liver homogenate (20%); also 80% plasma and whole citrated blood", "T1 sequence (P22734 1-264)": "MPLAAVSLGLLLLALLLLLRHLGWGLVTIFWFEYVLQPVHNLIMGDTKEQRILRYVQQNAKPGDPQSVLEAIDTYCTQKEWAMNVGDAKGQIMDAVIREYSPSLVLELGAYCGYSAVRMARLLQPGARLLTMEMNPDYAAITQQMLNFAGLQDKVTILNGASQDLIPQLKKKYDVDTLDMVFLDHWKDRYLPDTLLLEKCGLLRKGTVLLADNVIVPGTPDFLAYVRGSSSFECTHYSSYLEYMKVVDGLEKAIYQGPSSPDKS", "test": "O-methyl metabolite formation by COMT in biological fluids", "type": "in vitro ADME", "conditions": "no methoxy derivatives detected in any of the biological fluids studied", "procedure": "In an attempt to ascertain whether any biotransformation of the free catechol is taking place by COMT (catechol-O-methyltransferase) either before or after oxidation, the possible O-methyl metabolites (9 and 10) were synthesized separately following Scheme 4 with 3-methoxytyramine hydrochloride as the starting material. [drawing 52] [drawing 53]\nFigures 1-4 illustrate the results of such an investigation. The apparent half-lives for the disappearance of 5c in biological fluids at 37°C were calculated. […] The obtained values, 51 min (80% plasma), 17 min (20% brain homogenate), 18 min (whole citrated blood) and 6 min (20% liver homogenate), reflect an acceptable stability of the dihydro derivative 5c. The disappearance of 5c is accompanied by formation of some monoester (11) and dihydroxy dihydro form (5a) in all the media except the liver homogenate. The rate of hydrolysis of the first ester moiety is faster than the second and a reasonable amount of monoester 11 builds up with time. […] Thus, it is established that this derivative, 6a, is forming as the main product of the various interconversion routes and it is the direct precursor thus concluded to be locked in the brain in the in vivo experiment."}, "[5]": {"test": "Lability of the catechol esters to hydrolysis", "type": "physicochemical", "conditions": "diacetyl derivatives", "excerpt": "Attempts to prepare 7 by using dopamine free base were largely unsuccessful. As for the catechol protecting groups, the acetyl and pivalyl moieties were selected due to their rather different steric and partitioning parameters. Acylation could be accomplished with the acyl chlorides by using conventional methods. Reduction of the quaternaries (6a-c and 9) was accomplished by using sodium dithionite in mildly basic aqueous solution, (NaHC03). It was observed that the dihydro compound obtained in the case of the quaternary 6b gave a faint green color with ferric ions, indicating partial hydrolysis of at least one of the acetyl moieties during reduction, even in the cold, weakly basic solution used as a medium. The dihydropyridine derivatives isolated (5a-c and 10) were determined to have the expected 1,4-dihydropyridine structure, based on their NMR and UV spectra.\nThe dipivalyldihydro derivative (5c) was thoroughly investigated for its in vitro rates of disappearance and metabolic degradation in various biological fluids. It is evident that 5c represents a rather complex case, as besides oxidation, a two-step hydrolysis will also take place. Scheme 5 illustrates the interconversion of the possible components. [drawing 54]"}, "serum prolactin": {"tested_on": "serum prolactin", "test": "In vivo effect on pituitary prolactin secretion (17-β-estradiol primed male rats)", "conditions": "I.V. 1 mg/kg", "excerpt": "Adult male rats (Charles Rivers, CD-1) weighing 200 to 225 g were provided food and water ad libitum for at least one week period to experimentation. To elevate serum prolactin levels, each rat received a single s.c. implant of a Silastic tube (1.57 mm interior diameter, 5 mm x 3.15 mm overall size) packed with crystalline 17-,8-estradiol. Two days later the rats were lightly anesthetized with ether and a small incision was made over the right jugular vein for intravenous (LV.) administration of the test drugs. Compound 6a was injected at a dose of 1 mg/kg body weight/ml saline and groups of six rats were decapitated at 15, 30, 60 and 120 min later to collect blood samples. Control rats (time 0) received an I.V. injection of the saline vehicle and were decapitated 30 min later. Compound 5c was dissolved in 10% ethanol in saline and was injected IV. Rats were decapitated at 15, 30 and 120 min later. Control (time 0) animals received the 10% ethanol vehicle and were sampled 30 min later.\nTrunk blood was collected, allowed to clot for 2h and the serum was separated and stored at -20 ° C for subsequent assay for prolactin concentrations. Each serum sample was assayed in duplicate by the doubleantibody radioimmunoassay procedure described by the National Pituitary Agency Hormone Distribution Program. Serum prolactin concentrations are expressed in terms of the PRL-RP-2 reference preparation provided. The intraassay coefficient of variation for 10 replicate samples of pooled serum obtained from male rats was 13.8%.\nThe effects of compounds 5c and 6a on serum prolactin concentrations were evaluated by one-way analysis of variance and Student-Newman Keuls tests. A probability level of less than 0.05 was selected for significance. See FIGURE 7 and the discussion thereof hereinabove."}, "anterior pituitary (AP)": {"tested_on": "anterior pituitary (AP)", "test": "In vitro evaluation of the prolactin inhibitory effect on incubated anterior pituitaries", "type": "cell-based, rats", "conditions": "for Prolactin release rate of the incubated AP-S: 37°C, average of 9 separate AP-S", "procedure": "Adult female rats (Charles Rivers Lab.) weighing 225-250 g were maintained on food and water ad libitum. Animals were sacrificed by decapitation; their pituitary glands were quickly removed from the cranium. The anterior pituitary (AP) of each animal was dissected into two equal halves and placed into incubation media. (Gibco's Minimal Essential Media supplied by Grand Island Biological Co. was used.) The incubation was conducted at 37 °C, under continuous aeration (95% 02, 5% C02); the pH was 7.2. After one hour of preincubation, the media were discarded and replaced with fresh ones containing either DA ( 2 x 10-^8 M), 6a ( 2 x 10-^8) or ascorbic acid (10-^4 M). In all cases, one-half of AP received the test drug; the other, the ascorbate control. After one hour, samples were taken from the media and the remaining media were discarded. […] One hour later, the second samples were taken After the 3 h incubation period, each half AP's were weighed. The samples were diluted 1:50 with phosphate buffered saline and then assayed in triplicate by the radioimmunoassay method described. The data are given as ng prolactin released/mg wet weight/h. Paired Student's T-test was used to evaluate the significance of the inhibitory effects of the test drugs on prolactin secretion The control AP half and the drug treated half were employed in each paired comparison. See TABLE I and the discussion thereof hereinabove."}, "[6]": {"conditions": "cited from earlier work"}},
  "data": [
    {"smiles": "CN1C=C(C(=O)NCCc2ccccc2)CC(C(=O)NCCc2ccccc2)=C1", "note": "[1-Methyl-3,5-di(N-β-phenethyl)carbamoyl-1,4-dihydropyridine]", "values": [
      {"measurement": "Kinetics of Oxidation (rate constant)", "setting": "[1]", "value": "8.4 x 10^-6 n=6 r=.997"},
      {"measurement": "half-life", "setting": "[1]; unit inferred", "value": 1370, "unit": "min"},
      {"measurement": "Kinetics of Oxidation (rate constant)", "setting": "[2]", "value": "4.9 x 10^-5 n=5 r=.949"},
      {"measurement": "half-life", "setting": "[2]; unit inferred", "value": 234, "unit": "min"},
      {"measurement": "Oxidation by Hydrogen Peroxide", "setting": "[3]", "value": "Complete oxidation to the corresponding quaternary salts"}
    ]},
    {"smiles": "CCOC(=O)C1=CN(C)C=C(C(=O)NCCc2ccccc2)C1", "note": "[5-Carboethoxy-1-methyl-3-(N-β-phenethyl)carbamoyl-1,4-dihydropyridine]", "values": [
      {"measurement": "Kinetics of Oxidation (rate constant)", "setting": "[1]", "value": "1.74 x 10^-5 n=6 r=.993"},
      {"measurement": "half-life", "setting": "[1]", "value": 666, "unit": "min"},
      {"measurement": "Kinetics of Oxidation (rate constant)", "setting": "[2]", "value": "1.13 x 10^-4 n=5 r=.972"},
      {"measurement": "half-life", "setting": "[2]", "value": 102, "unit": "min"},
      {"measurement": "Oxidation by Hydrogen Peroxide", "setting": "[3]", "value": "Complete oxidation to the corresponding quaternary salts"}
    ]},
    {"smiles": "CN1C=CCC(C(=O)NCCc2ccc(O)c(O)c2)=C1", "note": "[5a, 1-Methyl-3-{N-[β-(3,4-dihydroxyphenyl)-ethyl]}carbamoyl-1,4-dihydropyridine]", "values": [
      {"measurement": "substrate for COMT", "setting": "[4]", "value": "do not appear to be good substrates for COMT"}
    ]},
    {"smiles": "CC(=O)Oc1ccc(CCNC(=O)C2=CN(C)C=CC2)cc1OC(C)=O", "note": "[5b, 1-Methyl-3-(N-[6-(3,4-diacetoxyphenyl)-ethyl]}carbamoyl-1,4-dihydropyridine]", "values": [
      {"measurement": "lability to hydrolysis", "setting": "[5]", "value": "labile to hydrolysis"}
    ]},
    {"smiles": "C[n+]1cccc(C(=O)NCCc2ccc(O)c(O)c2)c1", "note": "[6a]", "values": [
      {"measurement": "serum prolactin levels versus vehicle injected controls", "setting": "serum prolactin; by 60 and 120 min", "value": "not significantly different from vehicle injected controls"},
      {"measurement": "effect on the serum prolactin concentrations", "setting": "serum prolactin; by 15 min", "value": "no significant effect"},
      {"measurement": "reduction of serum prolactin concentrations", "setting": "serum prolactin; by 30 min", "value": 67, "unit": "%"},
      {"measurement": "reduction of the prolactin rate secretion", "setting": "anterior pituitary (AP); 2x10-^7 M", "value": "no effect"},
      {"measurement": "Prolactin release rate of the incubated AP-S", "setting": "anterior pituitary (AP); 2x10^-7M", "value": "277±32", "unit": "ng/mg. h"},
      {"measurement": "effect on the rate of release of prolactin", "setting": "anterior pituitary (AP); 2x10^-8M", "value": "neither DA nor 6a had any effect"},
      {"measurement": "Prolactin release rate of the incubated AP-S", "setting": "anterior pituitary (AP); 2x10^-8M", "value": "386±29", "unit": "ng/mg. h"},
      {"measurement": "substrate for COMT", "setting": "[4]", "value": "do not appear to be good substrates for COMT"}
    ]},
    {"smiles": "CC(=O)Oc1ccc(CCNC(=O)c2ccc[n+](C)c2)cc1OC(C)=O", "note": "[6b, 1-Methyl-3-{N-[β-(3,4-diacetoxy-phenyl)ethyl]} carbamoyl-pyridinium iodide]", "values": [
      {"measurement": "lability to hydrolysis", "setting": "[5]", "value": "labile to hydrolysis"}
    ]},
    {"smiles": "NCCc1ccc(O)c(O)c1", "note": "[DA, dopamine, reference compound]", "values": [
      {"measurement": "Prolactin release rate of the incubated AP-S", "setting": "anterior pituitary (AP); 2x10^-7M", "value": "121±38", "unit": "ng/mg. h"},
      {"measurement": "effect on the rate of release of prolactin", "setting": "anterior pituitary (AP); 2x10^-8M", "value": "neither DA nor 6a had any effect"},
      {"measurement": "Prolactin release rate of the incubated AP-S", "setting": "anterior pituitary (AP); 2x10^-8M", "value": "355±67", "unit": "ng/mg. h"},
      {"measurement": "inhibition at 0.2 µM", "setting": "anterior pituitary (AP); Rattus norvegicus, 1 h, 2x10-^7 M, read-out: reduction of the prolactin rate secretion", "value": 57, "unit": "%"}
    ]},
    {"smiles": "CCCC(CCC)C(=O)[O-].[Na+]", "note": "[sodium valproate]", "values": [
      {"measurement": "level in the blood needed to achieve the required activity", "setting": "[6]", "value": "50 to 100", "unit": "µg/mL"}
    ]}
  ]
}
